Test results from US8017602B2, “N-(2-(2-(5-hydroxy-3-oxo-3,4-dihydro-2H-benzo[b][1,4]oxazin-8-yl)ethylamino)ethyl)-3-(phenethoxy)propanamide derivatives, processes for their preparation, pharmaceutical compositions containing them and their use in therapy” (AstraZeneca AB, priority 2008, dated 2011).
Where a name gives a salt, the structure may show the parent alone.

Legend:
Adrenergic β2 = target: T1, Adrenergic β2 (Homo sapiens, UniProt P07550); experiment: Adrenergic β2 mediated cAMP production in H292 cells (AlphaScreen cAMP detection); format: cell-based; conditions: for β2 Int Act: Intrinsic Activity, fraction relative to the maximum activity determined for formoterol; for EC50: cAMP production, 60 min at room temperature, 300 μM rolipram, read-out: β2 pEC50 (converted)
T1 construct: Adherent H292 cells were removed from tissue culture flasks; endogenous in cells; host or cells: H292 cells
Description: H292 cells were grown in 225 cm2 flasks incubator at 37° C., 5% CO2 in RPMI medium containing, 10% (v/v) FBS (foetal bovine serum) and 2 mM L-glutamine.
Adherent H292 cells were removed from tissue culture flasks by treatment with Accutase™ cell detachment solution for 15 min. Flasks were incubated for 15 min in a humidified incubator at 37° C., 5% CO2. Detached cells were re-suspended in RPMI media (containing 10% (v/v) FBS and 2 mM L-glutamine) at […]. 10000 cells in 100 μl were added to each well of a tissue-culture-treated 96-well plate and the cells incubated overnight in a humidified incubator at 37° C., 5% CO2. The culture media was removed and cells were washed twice with 100 μl assay buffer and replaced with 50 μL assay buffer (HBSS solution containing 10 mM HEPES pH7.4 and 5 mM glucose). Cells were rested at room temperature for 20 min after which time 25 μl of rolipram (1.2 mM made up in assay buffer containing 2.4% (v/v) dimethylsulphoxide) was added. Cells were incubated with rolipram for 10 min after which time test compounds were added and the cells were incubated for 60 min at room temperature. The final rolipram concentration in the assay was 300 μM and final vehicle concentration was 1.6% (v/v) dimethylsulphoxide. The reaction was stopped by removing supernatants, washing once with 100 μL assay buffer and replacing with 50 μL lysis buffer. The cell monolayer was frozen at −80° C. for 30 min (or overnight).
AlphaScreen™ cAMP Detection
The concentration of cAMP (cyclic adenosine monophosphate) in the cell lysate was determined using AlphaScreen™ methodology. The frozen cell plate was thawed for 20 min on a plate shaker then 10 μl of the cell lysate was transferred to a 96-well white plate. 40 μL of mixed AlphaScreen™ detection beads pre-incubated with biotinylated cAMP, was added to each well and the plate incubated at room temperature for 10 h in the dark. The AlphaScreen™ signal was measured using an EnVision spectrophotometer (Perkin-Elmer Inc.) with the recommended manufacturer's settings. cAMP concentrations were determined by reference to a calibration curve determined in the same experiment using standard cAMP concentrations. Concentration response curves for agonists were constructed and data was fitted to a four parameter logistic equation to determine both the pEC50 and Intrinsic Activity. Intrinsic Activity was expressed as a fraction relative to the maximum activity determined for formoterol in each experiment.

[1] = target: T2, recombinant human Dopamine Subtype D2s receptors (Homo sapiens, UniProt P14416); experiment: Dopamine D2 selectivity binding assay ([3H]-spiperone); conditions: inhibition of [3H]-spiperone binding, human D2s membranes; read-out: D2 bind pIC50 (converted)
T2 construct: purchased Perkin Elmer
Description: Membranes containing recombinant human Dopamine Subtype D2s receptors were obtained from Perkin Elmer. These were diluted in Assay Buffer (50 mM HEPES, 1 mM EDTA, 120 mM NaCl, 0.1% gelatin, pH 7.4) to provide a final concentration of membranes that gave a clear window between maximum and minimum specific binding.
Assays were performed in U-bottomed 96-well polypropylene plates. 30 μL [^3H]-spiperone (0.16 nM final concentration) and 30 μl of test compound (10× final concentration) were added to each test well. For each assay plate 8 replicates were obtained for [^3H]-spiperone binding in the presence of 30 μL vehicle (10% (v/v) DMSO in Assay Buffer; defining maximum binding) or 30 μl Haloperidol (10 μM final concentration; defining non-specific binding (NSB)). Membranes were then added to achieve a final volume of 300 μL. The plates were incubated for 2 h at room temperature and then filtered onto PEI coated GF/B filter plates, pre-soaked for 1 h in Assay Buffer, using a 96-well plate Tomtec cell harvester. Five washes with 250 μl wash buffer (50 mM HEPES, 1 mM EDTA, 120 mM NaCl, pH 7.4) were performed at 4° C. to remove unbound radioactivity. The plates were dried then sealed from underneath using Packard plate sealers and MicroScint-O (50 μl) was added to each well. The plates were sealed (TopSeal A) and filter-bound radioactivity was measured with a scintillation counter (TopCount, Packard BioScience) using a 3-minute counting protocol.
Total specific binding (B0) was determined by subtracting the mean NSB from the mean maximum binding. NSB values were also subtracted from values from all other wells. […] Data was fitted to a four parameter logistic equation to determine the compound potency, which was expressed as pIC50 (negative log molar concentration inducing 50% inhibition of [^3H]-spiperone binding).

T2 sequence (P14416 1-414 isoform P14416-2): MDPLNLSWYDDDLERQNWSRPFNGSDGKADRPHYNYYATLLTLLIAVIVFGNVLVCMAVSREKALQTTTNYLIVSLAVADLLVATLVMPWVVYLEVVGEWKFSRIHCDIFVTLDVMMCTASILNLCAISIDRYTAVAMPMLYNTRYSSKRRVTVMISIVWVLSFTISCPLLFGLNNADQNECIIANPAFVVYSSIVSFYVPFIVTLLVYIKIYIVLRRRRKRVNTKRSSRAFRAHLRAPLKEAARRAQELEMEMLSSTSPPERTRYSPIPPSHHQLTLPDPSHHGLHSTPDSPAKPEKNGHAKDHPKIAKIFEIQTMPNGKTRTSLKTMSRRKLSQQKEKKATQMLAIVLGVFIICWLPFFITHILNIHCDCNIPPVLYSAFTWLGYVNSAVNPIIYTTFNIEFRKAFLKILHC
T1 sequence (P07550 whole entry): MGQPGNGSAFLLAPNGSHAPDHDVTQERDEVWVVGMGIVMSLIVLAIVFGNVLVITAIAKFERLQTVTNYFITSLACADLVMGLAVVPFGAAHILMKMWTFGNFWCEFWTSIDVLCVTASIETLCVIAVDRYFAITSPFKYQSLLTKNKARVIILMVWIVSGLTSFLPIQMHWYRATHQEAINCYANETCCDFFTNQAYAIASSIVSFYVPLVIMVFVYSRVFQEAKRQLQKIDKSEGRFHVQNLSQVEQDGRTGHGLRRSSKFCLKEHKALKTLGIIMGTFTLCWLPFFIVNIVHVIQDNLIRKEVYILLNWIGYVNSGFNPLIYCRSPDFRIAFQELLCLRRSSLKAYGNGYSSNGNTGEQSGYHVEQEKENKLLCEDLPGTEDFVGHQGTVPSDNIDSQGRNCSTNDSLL

Compound | β2 Int Act (Adrenergic β2) | EC50 (Adrenergic β2) [nM] | IC50 [1] [nM]
CC(C)n1cc(-c2cccc(CCOCCC(=O)N(CCNCCc3ccc(O)c4c3OCC(=O)N4)C3CCCC3)c2)cn1 [Example 22, N-Cyclopentyl-N-(2-(2-(5-hydroxy-3-oxo-3,4-dihydro-2H-benzo[b][1,4]oxazin-8-yl)ethylamino)ethyl)-3-(3-(1-isopropyl-1H-pyrazol-4-yl)phenethoxy)propanamide Trifluoroacetic Acid Salt] | 0.90 | 7.94 | 2510
CCn1cc(-c2cccc(CCOCCC(=O)N(CCNCCc3ccc(O)c4c3OCC(=O)N4)C3CCCC3)c2)cn1 [Example 24, N-Cyclopentyl-3-(3-(1-ethyl-1H-pyrazol-4-yl)phenethoxy)-N-(2-(2-(5-hydroxy-3-oxo-3,4-dihydro-2H-benzo[b][1,4]oxazin-8-yl)ethylamino)ethyl)propanamide Trifluoroacetic Acid Salt] | 0.95 | 7.94 | 3160
CCn1cc(-c2cccc(CCOCCC(=O)N(CCNCCc3ccc(O)c4c3OCC(=O)N4)[C@H](C)C(C)(C)C)c2)cn1 [Example 25, (R)—N-(3,3-Dimethylbutan-2-yl)-3-(3-(1-ethyl-1H-pyrazol-4-yl)phenethoxy)-N-(2-(2-(5-hydroxy-3-oxo-3,4-dihydro-2H-benzo[b][1,4]oxazin-8-yl)ethylamino)ethyl)propanamide Trifluoroacetic Acid Salt] | 0.90 | 12.6 | 3980
C[C@@H](N(CCNCCc1ccc(O)c2c1OCC(=O)N2)C(=O)CCOCCc1cccc(-c2cnn(C)c2)c1)C(C)(C)C [Example 26, (R)—N-(3,3-Dimethylbutan-2-yl)-N-(2-(2-(5-hydroxy-3-oxo-3,4-dihydro-2H-benzo[b][1,4]oxazin-8-yl)ethylamino)ethyl)-3-(3-(1-methyl-1H-pyrazol-4-yl)phenethoxy)propanamide Trifluoroacetic Acid Salt] | 0.88 | 12.6 | 2510
Cc1nc(-c2cccc(CCOCCC(=O)N(CCNCCc3ccc(O)c4c3OCC(=O)N4)C3CCCCC3)c2)no1 [Example 27, N-Cyclohexyl-N-(2-(2-(5-hydroxy-3-oxo-3,4-dihydro-2H-benzo[b][1,4]oxazin-8-yl)ethylamino)ethyl)-3-(3-(5-methyl-1,2,4-oxadiazol-3-yl)phenethoxy)propanamide Trifluoroacetic Acid Salt] | 0.91 | 15.8 | > 5010
CCn1cc(-c2cccc(CCOCCC(=O)N(CCNCCc3ccc(O)c4c3OCC(=O)N4)C3CCCCC3)c2)cn1 [Example 28, N-Cyclohexyl-3-(3-(1-ethyl-1H-pyrazol-4-yl)phenethoxy)-N-(2-(2-(5-hydroxy-3-oxo-3,4-dihydro-2H-benzo[b][1,4]oxazin-8-yl)ethylamino)ethyl)propanamide] | 0.90 | 6.31 | > 5010
CCn1ccnc1-c1cccc(CCOCCC(=O)N(CCNCCc2ccc(O)c3c2OCC(=O)N3)C2CCCCC2)c1 [Example 29, N-Cyclohexyl-3-(3-(1-ethyl-1H-imidazol-2-yl)phenethoxy)-N-(2-(2-(5-hydroxy-3-oxo-3,4-dihydro-2H-benzo[b][1,4]oxazin-8-yl)ethylamino)ethyl)propanamide Trifluoroacetic Acid Salt] | 0.90 | 50.1 | 2000
CCCC[C@@H](C)N(CCNCCc1ccc(O)c2c1OCC(=O)N2)C(=O)CCOCCc1cccc(-c2cnn(C)c2)c1 [Example 30, (R)—N-(Hexan-2-yl)-N-(2-(2-(5-hydroxy-3-oxo-3,4-dihydro-2H-benzo[b][1,4]oxazin-8-yl)ethylamino)ethyl)-3-(3-(1-methyl-1H-pyrazol-4-yl)phenethoxy)propanamide Trifluoroacetic Acid Salt] | 0.93 | 12.6 | 2510

Results, then the molecule that gave them:

β2 Int Act (Adrenergic β2) | EC50 (Adrenergic β2) [nM] | IC50 [1] [nM] | Compound
0.93 | 3.16 | 3980 | Cn1cc(-c2cccc(CCOCCC(=O)N(CCNCCc3ccc(O)c4c3OCC(=O)N4)C3CCCCCC3)c2)cn1 [Example 31, N-Cycloheptyl-N-(2-(2-(5-hydroxy-3-oxo-3,4-dihydro-2H-benzo[b][1,4]oxazin-8-yl)ethylamino)ethyl)-3-(3-(1-methyl-1H-pyrazol-4-yl)phenethoxy)propanamide Trifluoroacetic Acid Salt]
1.00 | 7.94 | 631 | Cc1nc(-c2cccc(CCOCCC(=O)N(CCNCCc3ccc(O)c4c3OCC(=O)N4)C3CCCCC3)c2)[nH]c1C [Example 32, N-Cyclohexyl-3-(3-(4,5-dimethyl-1H-imidazol-2-yl)phenethoxy)-N-(2-(2-(5-hydroxy-3-oxo-3,4-dihydro-2H-benzo[b][1,4]oxazin-8-yl)ethylamino)ethyl)propanamide]
0.93 | 12.6 | 3160 | Cn1ccnc1-c1cccc(CCOCCC(=O)N(CCNCCc2ccc(O)c3c2OCC(=O)N3)C2CCCCC2)c1 [Example 33, N-Cyclohexyl-N-(2-(2-(5-hydroxy-3-oxo-3,4-dihydro-2H-benzo[b][1,4]oxazin-8-yl)ethylamino)ethyl)-3-(3-(1-methyl-1H-imidazol-2-yl)phenethoxy)propanamide]
1.03 | 12.6 | 3160 | Cc1nc(-c2cccc(CCOCCC(=O)N(CCNCCc3ccc(O)c4c3OCC(=O)N4)C3CCCCC3)c2)cn1C [Example 35, N-Cyclohexyl-3-(3-(1,2-dimethyl-1H-imidazol-4-yl)phenethoxy)-N-(2-(2-(5-hydroxy-3-oxo-3,4-dihydro-2H-benzo[b][1,4]oxazin-8-yl)ethylamino)ethyl)propanamide Trifluoroacetic Acid Salt]
1.05 | 20 | > 7940 | COCCn1cc(-c2cccc(CCOCCC(=O)N(CCNCCc3ccc(O)c4c3OCC(=O)N4)C3CCCCC3)c2)cn1 [Example 36, N-Cyclohexyl-N-(2-(2-(5-hydroxy-3-oxo-3,4-dihydro-2H-benzo[b][1,4]oxazin-8-yl)ethylamino)ethyl)-3-(3-(1-(2-methoxyethyl)-1H-pyrazol-4-yl)phenethoxy)propanamide Trifluoroacetic Acid Salt]
0.85 | 6.31 | 1580 | Cc1c(-c2cccc(CCOCCC(=O)N(CCNCCc3ccc(O)c4c3OCC(=O)N4)C3CCCCC3)c2)cnn1C [Example 37, N-Cyclohexyl-3-(3-(1,5-dimethyl-1H-pyrazol-4-yl)phenethoxy)-N-(2-(2-(5-hydroxy-3-oxo-3,4-dihydro-2H-benzo[b][1,4]oxazin-8-yl)ethylamino)ethyl)propanamide Trifluoroacetic Acid Salt]
